From US7138361B2, “Herbicidal heterocycles” (E. I. du Pont de Nemours and Company, priority 2000, dated 2006)

Legend:
Format in all cases: in vivo
[1] = test system: Surinam grass (Brachiaria decumbens); experiment: Test B postemergence
How it was run: (§1)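 Ratings on a 0 to 100 visual scale (100 complete control) compare treated plants with controls 13 to 15 days after application. Treatments were pre- or postemergence sprays of compound in non-phytotoxic solvent with surfactant.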

[2] = test system: barnyardgrass (Echinochloa crus-galli); experiment: Test B postemergence
How it was run: as §1

[3] = test system: blackgrass (Alopecurus myosuroides); experiment: Test B postemergence
How it was run: as §1

[4] = test system: cocklebur (Xanthium strumarium); experiment: Test B postemergence
How it was run: as §1

corn (Zea mays) [5] = experiment: Test B postemergence
How it was run: as §1

[6] = test system: crabgrass (Digitaria sanguinalis); experiment: Test B postemergence
How it was run: as §1

[7] = test system: giant foxtail (Setaria faberii); experiment: Test B postemergence
How it was run: as §1

[8] = test system: lambsquarters (Chenopodium album); experiment: Test B postemergence
How it was run: as §1

[9] = test system: morning glory (Ipomoea hederacea); experiment: Test B postemergence
How it was run: as §1

[10] = test system: pigweed (Amaranthus retroflexus); experiment: Test B postemergence
How it was run: as §1

[11] = test system: velvetleaf (Abutilon theophrasti); experiment: Test B postemergence
How it was run: as §1

[12] = test system: wheat (Triticum aestivum); experiment: Test B postemergence
How it was run: as §1

wild oat (Avena fatua) = experiment: Test B postemergence
How it was run: as §1

[13] = test system: Surinam grass (Brachiaria decumbens); experiment: Test B preemergence
How it was run: as §1

[14] = test system: barnyardgrass (Echinochloa crus-galli); experiment: Test B preemergence
How it was run: as §1

[15] = test system: cocklebur (Xanthium strumarium); experiment: Test B preemergence
How it was run: as §1

corn (Zea mays) [16] = experiment: Test B preemergence
How it was run: as §1

[17] = test system: crabgrass (Digitaria sanguinalis); experiment: Test B preemergence
How it was run: as §1

[18] = test system: giant foxtail (Setaria faberii); experiment: Test B preemergence
How it was run: as §1

[19] = test system: lambsquarters (Chenopodium album); experiment: Test B preemergence
How it was run: as §1

[20] = test system: morning glory (Ipomoea hederacea); experiment: Test B preemergence
How it was run: as §1

[21] = test system: pigweed (Amaranthus retroflexus); experiment: Test B preemergence
How it was run: as §1

rice (Oryza saliva) [22] = experiment: Test B preemergence
How it was run: as §1

[23] = test system: velvetleaf (Abutilon theophrasti); experiment: Test B preemergence
How it was run: as §1

[24] = test system: barnyardgrass (Echinochloa crus-galli); experiment: Test C flooded paddy test; details: for Barnyardgrass plant response rating: Flooded Paddy, scale 0 to 100, 0 no effect, 100 complete control; for Plant response rating, Barnyardgrass: scale 0 to 100 (0 no effect, 100 complete control)
How it was run: (§2)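 Each species was cultivated to 2 leaves in flooded paddy pots, then treated. After a greenhouse period of 12–14 days, the plants were scored visually relative to controls from 0 (no effect) to 100 (complete control).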

[25] = test system: duck salad (Heteranthera limosa); experiment: Test C flooded paddy test; details: for Ducksalad plant response rating: Flooded Paddy, scale 0 to 100, 0 no effect, 100 complete control; for Plant response rating, Ducksalad: scale 0 to 100 (0 no effect, 100 complete control)
How it was run: as §2

rice (Oryza saliva) [26] = experiment: Test C flooded paddy test; details: for Rice plant response rating: Flooded Paddy, scale 0 to 100, 0 no effect, 100 complete control; for Plant response rating, Rice: scale 0 to 100 (0 no effect, 100 complete control)
How it was run: as §2

[27] = test system: smallflower flatsedge (Cyperus difformis); experiment: Test C flooded paddy test; details: for Flatsedge plant response rating: Flooded Paddy, scale 0 to 100, 0 no effect, 100 complete control; for Plant response rating, Flatsedge: scale 0 to 100 (0 no effect, 100 complete control)
How it was run: as §2

[28] = Rate 62 g/ha, scale 0 to 100, 0 no effect, 100 complete control
[29] = Rate 250 g/ha, scale 0 (no effect) to 100 (complete control), 13 to 15 days
[30] = preemergence, Rate 62 g/ha, scale of 0 to 100 where 0 is no effect and 100 is complete control, 13 to 15 days
[31] = preemergence, Rate 250 g/ha, scale 0 to 100, 0 no effect, 100 complete control
[32] = flooded paddy test, Rate 62 g/ha
[33] = flooded paddy test, Rate 125 g/ha
[34] = Rate 125 g/ha, scale 0 to 100, 0 no effect, 100 complete control
[35] = Rate 500 g/ha, scale 0 to 100, 0 is no effect, 100 is complete control, 13 to 15 days
[36] = Preemergence, Rate 500 g/ha, scale 0 to 100, 0 no effect, 100 complete control
[37] = preemergence, Rate 125 g/ha, scale of 0 to 100 where 0 is no effect and 100 is complete control, 13 to 15 days
[38] = flooded paddy test, Rate 250 g/ha
[39] = flooded paddy test, Rate 62 g/ha, visually evaluated after 12 to 14 days, 0 = no effect, 100 = complete control

CCOc1cccc(N2CCC(n3ccc(C(CC)CC)n3)C2=O)c1 (stereo not drawn) [Compound 125]
Plant response rating, Surinam grass [1, 28]: 0
Plant response rating, Surinam grass [1, 29]: 0
Plant response rating, Barnyardgrass [2, 28]: 0
Plant response rating, Barnyardgrass [2, 29]: 80
Plant response rating, Blackgrass [3, 28]: 0
Plant response rating, Blackgrass [3, 29]: 0
Plant response rating, Cocklebur [4, 28]: 30
Plant response rating, Cocklebur [4, 29]: 70
Plant response rating, Corn (corn (Zea mays) [5]; [28]): 0
Plant response rating, Corn (corn (Zea mays) [5]; [29]): 0
Plant response rating, Crabgrass [6, 28]: 0
Plant response rating, Crabgrass [6, 29]: 0
Plant response rating, Foxtail, Giant [7, 28]: 0
Plant response rating, Foxtail, Giant [7, 29]: 0
Plant response rating, Lambsquarters [8, 28]: 100
Plant response rating, Lambsquarters [8, 29]: 100
Plant response rating, Morningglory [9, 28]: 50
Plant response rating, Morningglory [9, 29]: 100
Plant response rating, Pigweed [10, 28]: 30
Plant response rating, Pigweed [10, 29]: 70
Plant response rating, Velvetleaf [11, 28]: 0
Plant response rating, Velvetleaf [11, 29]: 0
Plant response rating, Wheat [12, 28]: 0
Plant response rating, Wheat [12, 29]: 0
Plant response rating, Wild Oat (wild oat (Avena fatua); [28]): 0
Plant response rating, Wild Oat (wild oat (Avena fatua); [29]): 0
Plant response rating, Surinam grass [13, 30]: 70
Plant response rating, Surinam grass [13, 31]: 100
Plant response rating, Barnyardgrass [14, 30]: 100
Plant response rating, Barnyardgrass [14, 31]: 100
Plant response rating, Cocklebur [15, 30]: 0
Plant response rating, Cocklebur [15, 31]: 50
Plant response rating, Corn (corn (Zea mays) [16]; [30]): 20
Plant response rating, Corn (corn (Zea mays) [16]; [31]): 40
Plant response rating, Crabgrass [17, 30]: 100
Plant response rating, Crabgrass [17, 31]: 100
Plant response rating, Foxtail, Giant [18, 30]: 100
Plant response rating, Foxtail, Giant [18, 31]: 100
Plant response rating, Lambsquarters [19, 30]: 100
Plant response rating, Lambsquarters [19, 31]: 100
Plant response rating, Morningglory [20, 30]: 50
Plant response rating, Morningglory [20, 31]: 80
Plant response rating, Pigweed [21, 30]: 100
Plant response rating, Pigweed [21, 31]: 100
Plant response rating, Rice (rice (Oryza saliva) [22]; [30]): 50
Plant response rating, Rice (rice (Oryza saliva) [22]; [31]): 100
Plant response rating, Velvetleaf [23, 30]: 0
Plant response rating, Velvetleaf [23, 31]: 40
Barnyardgrass plant response rating ([24]; Rate 250 g/ha): 100
Barnyardgrass plant response rating ([24]; Rate 500 g/ha): 100
Plant response rating, Barnyardgrass [24, 32]: 65
Plant response rating, Barnyardgrass [24, 33]: 100
Ducksalad plant response rating ([25]; Rate 250 g/ha): 100
Ducksalad plant response rating ([25]; Rate 500 g/ha): 100
Plant response rating, Ducksalad [25, 32]: 40
Plant response rating, Ducksalad [25, 33]: 95
Rice plant response rating (rice (Oryza saliva) [26]; Rate 250 g/ha): 40
Rice plant response rating (rice (Oryza saliva) [26]; Rate 500 g/ha): 60
Plant response rating, Rice (rice (Oryza saliva) [26]; [32]): 0
Plant response rating, Rice (rice (Oryza saliva) [26]; [33]): 10
Flatsedge plant response rating ([27]; Rate 250 g/ha): 100
Flatsedge plant response rating ([27]; Rate 500 g/ha): 100
Plant response rating, Flatsedge [27, 32]: 100
Plant response rating, Flatsedge [27, 33]: 100

COc1cc(N2CCC(n3ccc(C(C)(C)C)n3)C2=O)cc2ccccc12 (stereo not drawn) [Compound 136]
Plant response rating, Surinam grass [1, 34]: 0
Plant response rating, Surinam grass [1, 35]: 0
Plant response rating, Barnyardgrass [2, 34]: 0
Plant response rating, Barnyardgrass [2, 35]: 0
Plant response rating, Blackgrass [3, 34]: 0
Plant response rating, Blackgrass [3, 35]: 0
Plant response rating, Cocklebur [4, 34]: 0
Plant response rating, Cocklebur [4, 35]: 0
Plant response rating, Corn (corn (Zea mays) [5]; [34]): 0
Plant response rating, Corn (corn (Zea mays) [5]; [35]): 0
Plant response rating, Crabgrass [6, 34]: 0
Plant response rating, Foxtail, Giant [7, 34]: 0
Plant response rating, Lambsquarters [8, 34]: 0
Plant response rating, Morningglory [9, 34]: 0
Plant response rating, Pigweed [10, 34]: 0
Plant response rating, Velvetleaf [11, 34]: 0
Plant response rating, Wheat [12, 34]: 0
Plant response rating, Wild Oat (wild oat (Avena fatua); [34]): 0
Plant response rating, Surinam grass [13, 36]: 0
Plant response rating, Surinam grass [13, 37]: 0
Plant response rating, Barnyardgrass [14, 36]: 0
Plant response rating, Barnyardgrass [14, 37]: 0
Plant response rating, Cocklebur [15, 36]: 0
Plant response rating, Cocklebur [15, 37]: 0
Plant response rating, Corn (corn (Zea mays) [16]; [36]): 0
Plant response rating, Corn (corn (Zea mays) [16]; [37]): 0
Plant response rating, Crabgrass [17, 36]: 70
Plant response rating, Crabgrass [17, 37]: 0
Plant response rating, Foxtail, Giant [18, 36]: 0
Plant response rating, Foxtail, Giant [18, 37]: 0
Plant response rating, Lambsquarters [19, 36]: 100
Plant response rating, Lambsquarters [19, 37]: 100
Plant response rating, Morningglory [20, 36]: 0
Plant response rating, Morningglory [20, 37]: 0
Plant response rating, Pigweed [21, 36]: 60
Plant response rating, Pigweed [21, 37]: 0
Plant response rating, Rice (rice (Oryza saliva) [22]; [36]): 0
Plant response rating, Rice (rice (Oryza saliva) [22]; [37]): 0
Plant response rating, Velvetleaf [23, 36]: 0
Plant response rating, Velvetleaf [23, 37]: 0
Barnyardgrass plant response rating ([24]; Rate 500 g/ha): 0
Plant response rating, Barnyardgrass [24, 33]: 0
Plant response rating, Barnyardgrass [24, 38]: 0
Plant response rating (scale 0 to 100), Barnyardgrass [24, 39]: 0
Ducksalad plant response rating ([25]; Rate 500 g/ha): 0
Plant response rating, Ducksalad [25, 33]: 0
Plant response rating, Ducksalad [25, 38]: 0
Plant response rating (scale 0 to 100), Ducksalad [25, 39]: 0
Rice plant response rating (rice (Oryza saliva) [26]; Rate 500 g/ha): 0
Plant response rating, Rice (rice (Oryza saliva) [26]; [33]): 0
Plant response rating, Rice (rice (Oryza saliva) [26]; [38]): 0
Plant response rating (scale 0 to 100), Rice (rice (Oryza saliva) [26]; [39]): 0
Flatsedge plant response rating ([27]; Rate 500 g/ha): 0
Plant response rating, Flatsedge [27, 33]: 0
Plant response rating, Flatsedge [27, 38]: 0
Plant response rating (scale 0 to 100), Flatsedge [27, 39]: 0
